Like-named read-outs stand apart in the source and are kept apart here.
What was measured:
Type in all cases: cell-based
[1] = test system: Enterobacter cloacae EN453; experiment: MIC by standard agar dilution test
[2] = test system: Pseudomonas aeruginosa Ps15; experiment: MIC by standard agar dilution test
[3] = test system: Pseudomonas aeruginosa X48; experiment: MIC by standard agar dilution test
[4] = test system: Enterobacter cloacae EB24; experiment: MIC by standard agar dilution test
Proteus morganii PR1 = experiment: MIC by standard agar dilution test; conditions: Morganella morganii
[5] = test system: Pseudomonas aeruginosa X239; experiment: MIC by standard agar dilution test
[6] = test system: Pseudomonas aeruginosa Ps25; experiment: MIC by standard agar dilution test
Serratia marcescens SE2 = experiment: MIC by standard agar dilution test
Serratia marcescens SE3 = experiment: MIC by standard agar dilution test
Proteus morganii PR2 = experiment: MIC by standard agar dilution test; conditions: Morganella morganii
[7] = test system: Pseudomonas aeruginosa 4276; experiment: MIC by standard agar dilution test
Serratia marcescens X99 = experiment: MIC by standard agar dilution test
[8] = test system: Enterobacter aerogenes EB6; experiment: MIC by standard agar dilution test; conditions: Klebsiella aerogenes
Proteus inconstans PV25 = experiment: MIC by standard agar dilution test; conditions: Providencia alcalifaciens
[9] = test system: Pseudomonas aeruginosa PI23; experiment: MIC by standard agar dilution test
[10] = test system: Pseudomonas aeruginosa SF-2; experiment: MIC by standard agar dilution test
[11] = test system: Klebsiella pneumoniae KL2; experiment: MIC by standard agar dilution test
[12] = test system: Pseudomonas aeruginosa X528; experiment: MIC by standard agar dilution test
[13] = test system: Pseudomonas aeruginosa Ps9; experiment: MIC by standard agar dilution test
[14] = test system: Staphylococcus aureus 3055; experiment: MIC by standard agar dilution test
Salmonella typhimurium = experiment: MIC by standard agar dilution test; conditions: Salmonella enterica, read-out: Minimum Inhibitory Concentration
[15] = test system: Bordetella bronchiseptica 16; experiment: MIC by standard agar dilution test
[16] = test system: Citrobacter freundii CF17; experiment: MIC by standard agar dilution test
[17] = test system: Klebsiella pneumoniae KL14; experiment: MIC by standard agar dilution test; conditions: KL14, read-out: Minimum Inhibitory Concentration
[18] = test system: Staphylococcus aureus 3074; experiment: MIC by standard agar dilution test; conditions: Table II, read-out: Minimum Inhibitory Concentration
Source text: (§1) The antibacterial activity of the antibiotic compounds of this invention is illustrated by the following in vitro and in vivo test data obtained with representative compounds. In Tables I and II the minimum inhibitory concentration (MIC) for representative compounds against a wide range of gram-positive and gram-negative bacteria is presented. The MIC values were obtained by the standard agar dilution test.

Erwinia amylovora = experiment: MIC by standard agar dilution test; conditions: Table II, read-out: Minimum Inhibitory Concentration
Source text: as §1

Proteus morganii PR15 = experiment: MIC by standard agar dilution test; conditions: Morganella morganii, PR15; Table II; agar dilution; read-out: Minimum Inhibitory Concentration
[19] = test system: Pseudomonas solanacearum X185; experiment: microbe, parasite or virus in culture; conditions: Ralstonia solanacearum, X185, read-out: Minimum Inhibitory Concentration
[20] = test system: Streptococcus faecalis X66; experiment: MIC by standard agar dilution test; conditions: Enterococcus faecalis, X66; Table II; agar dilution; read-out: Minimum Inhibitory Concentration
Salmonella typhosa SA12 = experiment: MIC by standard agar dilution test; conditions: Salmonella enterica, read-out: Minimum Inhibitory Concentration
Escherichia coli EC14 = experiment: MIC by standard agar dilution test; conditions: EC14, Table II, agar dilution, read-out: Minimum Inhibitory Concentration
[21] = test system: Enterobacter aerogenes EB17; experiment: MIC by standard agar dilution test; conditions: Klebsiella aerogenes, EB17, read-out: Minimum Inhibitory Concentration
[22] = PS15, read-out: Minimum Inhibitory Concentration
[23] = X48, read-out: Minimum Inhibitory Concentration
[24] = EB24, read-out: Minimum Inhibitory Concentration
[25] = X239, read-out: Minimum Inhibitory Concentration, Table 1
[26] = PS25, read-out: Minimum Inhibitory Concentration
[27] = Pseudomonas aeruginosa, 4276, read-out: Minimum Inhibitory Concentration
[28] = X99, read-out: Minimum Inhibitory Concentration
[29] = EB6, read-out: Minimum Inhibitory Concentration
[30] = PI23, read-out: Minimum Inhibitory Concentration
[31] = SF2, read-out: Minimum Inhibitory Concentration
[32] = X528, read-out: Minimum Inhibitory Concentration
[33] = PS9, read-out: Minimum Inhibitory Concentration
[34] = EN453, Table 1, agar dilution, read-out: Minimum Inhibitory Concentration
[35] = PR1, Table 1, agar dilution, read-out: Minimum Inhibitory Concentration
[36] = SE2, Table 1, agar dilution, read-out: Minimum Inhibitory Concentration
[37] = SE3, Table 1, read-out: Minimum Inhibitory Concentration
[38] = PR2, Table 1, agar dilution, read-out: Minimum Inhibitory Concentration
[39] = PV25, Table 1, agar dilution, read-out: Minimum Inhibitory Concentration
[40] = KL2, Table 1, agar dilution, read-out: Minimum Inhibitory Concentration

Measured: MIC

CN[C@@H]1[C@@H](O[C@H]2O[C@H](CO[Si](C)(C)C(C)(C)C)[C@@H](N)[C@H](O)[C@H]2O)O[C@H]2C[C@@H](N)[C@@H](O[C@H]3[C@H](O)[C@@H](O)[C@H](N)C[C@@H]3N)O[C@@H]2[C@@H]1O [Test Compound 6, 6"-O-(tert-Butyldimethylsilyl)Apramycin]
128 µg/mL: [2]; [22] | [5]; [25] | [6]; [26] | [7]; [27] | [10]; [31]
32 µg/mL: [1]; EN453, read-out: Minimum Inhibitory Concentration | Proteus morganii PR1; PR1, read-out: Minimum Inhibitory Concentration | Serratia marcescens X99; [28] | [8]; [29] | [11]; KL2, read-out: Minimum Inhibitory Concentration
> 128 µg/mL: [3]; [23] | [9]; [30] | [13]; [33]
64 µg/mL: Serratia marcescens SE2; SE2, read-out: Minimum Inhibitory Concentration | Serratia marcescens SE3; SE3, read-out: Minimum Inhibitory Concentration, Table 1 | Proteus morganii PR2; PR2, read-out: Minimum Inhibitory Concentration | [12]; [32]
16 µg/mL: [4]; [24] | Proteus inconstans PV25; PV25, read-out: Minimum Inhibitory Concentration

CN[C@@H]1[C@@H](O[C@H]2O[C@H](COS(=O)(=O)c3ccc(C)cc3)[C@@H](N)[C@H](O)[C@H]2O)O[C@H]2C[C@@H](N)[C@@H](O[C@H]3[C@H](O)[C@@H](O)[C@H](N)C[C@@H]3N)O[C@@H]2[C@@H]1O [Test Compound 2, 6"-O-(Para-toluenesulfonyl)apramycin]
64 µg/mL: [15]; Bordetella bronchiseptica, 16, read-out: Minimum Inhibitory Concentration
< 0.5 µg/mL: [14]; Staphylococcus aureus, 3055, Table II, agar dilution, read-out: Minimum Inhibitory Concentration
32 µg/mL: Serratia marcescens SE3; SE3, read-out: Minimum Inhibitory Concentration, Table II
2 µg/mL: [17] | [18] | Erwinia amylovora
4 µg/mL: Salmonella typhimurium; Table II, agar dilution | [16]; CF17, Table II, agar dilution, read-out: Minimum Inhibitory Concentration | Escherichia coli EC14
1 µg/mL: [19] | Salmonella typhosa SA12
16 µg/mL: [1]; [34] | [4]; EB24, Table 1, agar dilution, read-out: Minimum Inhibitory Concentration | Proteus morganii PR1; [35] | [5]; X239, Table II, read-out: Minimum Inhibitory Concentration | Proteus morganii PR15 | Serratia marcescens SE2; [36] | Serratia marcescens SE3; [37] | [20] | Proteus morganii PR2; [38] | Serratia marcescens X99; X99, Table 1, agar dilution, read-out: Minimum Inhibitory Concentration | [8]; EB6, Table 1, agar dilution, read-out: Minimum Inhibitory Concentration | Proteus inconstans PV25; [39] | [11]; [40]
> 128 µg/mL: [2]; [22] | [3]; [23] | [5]; [25] | [6]; [26] | [7]; [27] | [9]; [30] | [10]; [31] | [12]; [32] | [13]; [33]

CN[C@@H]1[C@@H](O[C@H]2O[C@H](COS(C)(=O)=O)[C@@H](N)[C@H](O)[C@H]2O)O[C@H]2C[C@@H](N)[C@@H](O[C@H]3[C@H](O)[C@@H](O)[C@H](N)C[C@@H]3N)O[C@@H]2[C@@H]1O [Test Compound 1, 6"-O-(Methanesulfonyl)apramycin]
8 µg/mL: [1]; [34] | Proteus morganii PR1; [35] | Serratia marcescens SE2; [36] | Serratia marcescens SE3; [37] | Proteus inconstans PV25; [39] | [11]; [40] | Escherichia coli EC14
4 µg/mL: Salmonella typhimurium | [4]; [24] | [16]; CF17, read-out: Minimum Inhibitory Concentration | [5]; X239, read-out: Minimum Inhibitory Concentration, Table II | [17] | [18] | [21] | Serratia marcescens X99; [28] | [8]; [29] | Salmonella typhosa SA12
128 µg/mL: [2]; PS15, Table 1, agar dilution, read-out: Minimum Inhibitory Concentration | [3]; X48, Table 1, agar dilution, read-out: Minimum Inhibitory Concentration | [5]; X239, Table 1, read-out: Minimum Inhibitory Concentration | [10]; SF2, Table 1, agar dilution, read-out: Minimum Inhibitory Concentration | [12]; X528, Table 1, agar dilution, read-out: Minimum Inhibitory Concentration
64 µg/mL: [6]; PS25, Table 1, agar dilution, read-out: Minimum Inhibitory Concentration
2 µg/mL: [14]; Staphylococcus aureus, 3055, read-out: Minimum Inhibitory Concentration
> 128 µg/mL: [7]; Pseudomonas aeruginosa, 4276, Table 1, agar dilution, read-out: Minimum Inhibitory Concentration | [9]; PI23, Table 1, agar dilution, read-out: Minimum Inhibitory Concentration | [13]; PS9, Table 1, agar dilution, read-out: Minimum Inhibitory Concentration
1 µg/mL: [19]
32 µg/mL: Proteus morganii PR15 | [20] | Proteus morganii PR2; [38]
16 µg/mL: [15]; Bordetella bronchiseptica, 16, Table II, agar dilution, read-out: Minimum Inhibitory Concentration | Serratia marcescens SE3; SE3, Table II, read-out: Minimum Inhibitory Concentration

Reference: patent publication US4379917A, “6"-(Substituted)-apramycin antibiotic derivatives and intermediates and starting materials therefor” (Eli Lilly and Company, priority 1981, dated 1983)
